Laboratory results as given in article PMC10035389, “Safety, Tolerability, and Pharmacokinetics of TAK-931, a Cell Division Cycle 7 Inhibitor, in Patients with Advanced Solid Tumors: A Phase I First-in-Human Study” (Cancer Research Communications, 2022).

Key:
Assay type in all cases: in vivo, human
[1] = test system: advanced solid tumors; assay: Tumor response by RECIST version 1.1; design: key to Best response, individual patient: PD: progressive disease; PR: partial response; SD: stable disease; conditions: for Duration of SD / Duration PR maintained: 1 patient
Method: (§1) DLTs included: cycle 1 grade ≥3 hematologic and non-hematologic events or grade 2 non-hematologic events considered by the investigator to be TAK-931-related, grade 2 ejection fraction decrease, >2 weeks delay in initiating cycle 2 (1 week for schedules D and E), and >50% TAK-931 dose reduction in cycle 1 due to treatment-related adverse events (AEs; see Supplementary Materials and Methods for full DLT criteria). Toxicity was evaluated by NCI Common Terminology Criteria for Adverse Events (version 4.03). Tumor response was measured using the RECIST (version 1.1) ([16]). Serial blood samples for pharmacokinetic analysis were collected during cycle 1 on days 1 and 7 (schedule B), 1 and 8 (schedules A and D), or 1 and 9 (schedule E). Pharmacokinetic parameters were estimated from concentration–time profiles using noncompartmental methods with WinNonlin® Phoenix™ version 8.1 (Certara, Princeton, NJ). pMCM2 was detected semiquantitatively by IHC of histologic sections of formalin-fixed, paraffin-embedded skin and tumor biopsies using anti-pMCM2 (3378-1, Epitomics Inc.; ref. [15]). Quantitative image analysis determined pMCM2 levels as “histologic score nuclei (H-score).” Skin punch biopsies (2–4 mm) were obtained during screening or predose on cycle 1, day 1 and for patients in schedules A, B, and D, postdose on any drug dosing day after 3 consecutive dosing days in cycle 1. A postdose skin biopsy was obtained on day 9 in schedule E. Fresh tumor biopsy pairs were collected predose and postdose on any dosing day after the completion of 3 consecutive dosing days in cycle 1 from patients who received doses considered to have biological effect.
(§2) The safety population included patients who received ≥1 dose of TAK-931. The pharmacodynamic-evaluable population comprised patients from the safety population with a baseline and ≥1 additional postbaseline biopsy sample that was suitable for pMCM2 analysis. The pharmacokinetic-evaluable population included patients with sufficient dosing and TAK-931 concentration–time data to estimate pharmacokinetic parameters. The response-evaluable population included patients in the safety population with measurable disease at baseline and ≥1 postbaseline response assessment.

[2] = test system: patients with advanced solid tumors; assay: Dose-limiting toxicities, MTD and RP2D determination (BLRM-guided dose escalation)
From the text: This was a phase I, open-label, dose-escalation study of single-agent TAK-931. Dose escalation of TAK-931 was cohort based with an adaptive design using Bayesian logistic regression modeling (BLRM) with pharmacokinetic guidance. BLRM also guided MTD estimation from the second dose. Patients were enrolled in one of four dosing schedules (A, B, D, or E; Supplementary Fig. S1) to receive TAK-931. Two additional schedules were planned (C and F) but no patients were enrolled. Schedule A included an initial accelerated escalation phase. TAK-931 was administered once daily for 14 days in 21-day cycles starting at 30 mg, which doubled until a cycle 1 dose-limiting toxicity (DLT) was observed, when 2 patients experienced grade ≥2 treatment-related toxicity, or when maximum geometric mean plasma concentration (Cmax) for the cohort reached or exceeded 800 ng/mL [threshold for off-target adverse effects (hypotension) in animal toxicology studies]; then dose escalation transitioned to modified Fibonacci escalation steps. In schedule B (based on experience with schedule A), patients received TAK-931 once daily or twice daily for 7 days on, 7 days off in a 28-day cycle starting at 60 mg. In schedule D, patients received TAK-931 once daily starting at 20 mg in 21-day cycles; BLRM was not applied but further adjustments were dependent on observed safety, pharmacokinetics, and pharmacodynamics. In schedule E, patients received TAK-931 once daily for 2 days on, 5 days off starting at 100 mg in 21-day cycles. A safety expansion was permitted once MTD had been determined. Prophylactic growth factors were permitted in all schedules to manage severe and/or febrile neutropenia. TAK-931 treatment continued until unacceptable toxicity, disease progression, or patient withdrawal.
as §1
A dose-limiting toxicity (DLT) was defined as any of the following events that occurred during cycle 1 and were considered by the investigator to be related to TAK-931:
Grade 4 neutropenia (ANC <500 cells/mm^3) lasting >7 consecutive days; if myeloid growth factors were used, the event was considered a DLT irrespective of the duration
Grade ≥3 neutropenia (ANC <1000 cells/mm^3) with fever and/or infection, where fever was defined as a single temperature of >38.3°C or sustained temperature of ≥38°C for >1 hour […]

[3] = test system: skin phosphorylated MCM2 (pMCM2; a CDC7 substrate); assay: pMCM2 IHC (H-score) in skin punch biopsies
From the text: The primary objectives were to evaluate safety, tolerability, and to identify the MTD of TAK-931. Secondary objectives were to characterize the pharmacokinetics of TAK-931, assess pharmacodynamic effects of TAK-931 by measuring basal and postdose levels of skin phosphorylated MCM2 (pMCM2; a CDC7 substrate), and assess preliminary clinical activity of TAK-931. An exploratory objective was to assess the pharmacodynamic effect of TAK-931 in fresh tumor biopsies after multiple doses of TAK-931 that were considered to have biological effect.
as §1, §2

Structure (SMILES): Cc1[nH]ncc1-c1cc2nc([C@@H]3CC4CCN3CC4)[nH]c(=O)c2s1 [TAK-931, simurosertib]
- Duration of SD ([1]; cervical cancer, schedule A (50 mg)): 11.33 months
- Duration of SD ([1]; cervical cancer, schedule D (40 mg)): 15.24 months
- Duration PR maintained ([1]; cervical squamous cell cancer, schedule A 60 mg): 2.2 months
- Duration PR maintained ([1]; duodenal squamous cell cancer, schedule A 30 mg): 2.1 months
- Duration PR maintained ([1]; esophageal cancer, schedule B 100 mg): 4.2 months
- Duration PR maintained ([1]; esophageal squamous cell cancer, schedule A 50 mg): 2.7 months
- Duration of SD ([1]; thymic cancer, schedule A (50 mg)): 10.45 months
- CR (complete response) as best response ([1]; Schedule A n = 24): 0 n (%) [95% CI]
- CR (complete response) as best response ([1]; Schedule B n = 23): 0 n (%) [95% CI]
- CR (complete response) as best response ([1]; Schedule D n = 17): 0 n (%) [95% CI]
- ORR (overall response rate), investigator's assessment ([1]; Schedule D n = 17): 0 n (%) [95% CI]
- PR (partial response) as best response ([1]; Schedule D n = 17): 0 n (%) [95% CI]
- CR (complete response) as best response ([1]; Schedule E n = 11): 0 n (%) [95% CI]
- ORR (overall response rate), investigator's assessment ([1]; Schedule E n = 11): 0 n (%) [95% CI]
- PR (partial response) as best response ([1]; Schedule E n = 11): 0 n (%) [95% CI]
- Patients achieving a partial response ([1]; overall): 5 patients
- Patients with best response of SD ([1]; overall): 28 patients
- Share of patients with SD or PR having esophageal, thymic, or cervical cancer ([1]; overall): 39%
- Median progression-free survival ([1]; overall, 95% confidence interval, 1.94–3.06): 2.2 months
- Overall response rate (ORR) ([1]; schedule A): 13%
- Best response, individual patient ([1]; schedule A, 30 mg, cancer type Duodenal): PR
- Best response, individual patient ([1]; schedule A, 30 mg, cancer type Pancreatic): SD
- Best response, individual patient ([1]; schedule A, 30 mg, cancer type Rectal): PD
- Best response, individual patient ([1]; schedule A, 40 mg, cancer type Breast): PD
- Best response, individual patient ([1]; schedule A, 40 mg, cancer type Rectal): PD
- Best response, individual patient ([1]; schedule A, 40 mg, cancer type Unknown): SD
- Best response, individual patient ([1]; schedule A, 60 mg, cancer type Cervical): PR
- Best response, individual patient ([1]; schedule A, 60 mg, cancer type Ovarian): SD
- Best response, individual patient ([1]; schedule A, 60 mg, cancer type Pancreatic): SD
- Overall response rate (ORR) ([1]; schedule B): 9%
- Recommended phase II dose ([2]; once daily days 1–14 in 21-day cycles): 50 mg
- Patients with DLTs (grade 4 neutropenia) ([2]; schedule A): 2 patients
- Patients with DLT of grade 4 neutropenia lasting >3 days ([2]; schedule A, 60 mg): 2 of 3
- Maximum tolerated dose (MTD) ([2]; schedule A: once daily days 1–14 of 21-day cycle): 50 mg
- Patients with DLT of grade 3 febrile neutropenia ([2]; schedule B): 3 n
- Patients with DLT of grade 4 neutropenia ([2]; schedule B): 1 n
- Patients with DLTs ([2]; schedule B): 4 patients
- Patients with DLT of grade 3 febrile neutropenia ([2]; schedule B, 80 mg): 2 of 9
- Patients with DLT of grade 4 neutropenia lasting >7 days ([2]; schedule B, 100 mg): One of 6
- Patients with DLT of grade 3 febrile neutropenia ([2]; schedule B, 120 mg): one of six
- Maximum tolerated dose (MTD) ([2]; schedule B: days 1–7 and 15–21 of 28-day cycle): 100 mg
- Patients with DLT of grade 4 neutropenia ([2]; schedule D, 40 mg): 1 patient
- Patients with DLT of grade 3 febrile neutropenia ([2]; schedule E, 150 mg): a second patient
- Patients with DLT of grade 4 neutropenia ([2]; schedule E, 150 mg): 1 patient
- Skin pMCM2 Mean H-score (StDev), Cycle 1, day 8 ([3]; Schedule A (30 mg), n = 3, baseline mean H-score 18.47 (8.45)): 10.93 (6.57)
- % of pMCM2 inhibition (Change from baseline), skin ([3]; Schedule A (30 mg), n = 3, cycle 1, day 8): 40.8%
- Skin pMCM2 Mean H-score (StDev), Cycle 1, day 8 ([3]; Schedule A (40 mg), n = 3, baseline mean H-score 19.53 (3.78)): 12.87 (12.19)
- % of pMCM2 inhibition (Change from baseline), skin ([3]; Schedule A (40 mg), n = 3, cycle 1, day 8): 34.1%
- Skin pMCM2 Mean H-score (StDev), Cycle 1, day 8 ([3]; Schedule A (50 mg), n = 14, baseline mean H-score 10.50 (5.85)): 3.76 (5.42)
- % of pMCM2 inhibition (Change from baseline), skin ([3]; Schedule A (50 mg), n = 14, cycle 1, day 8): 64.2%
- Skin pMCM2 Mean H-score (StDev), Cycle 1, day 8 ([3]; Schedule A (60 mg), n = 3, baseline mean H-score 10.93 (1.94)): 1.00 (0.60)
- % of pMCM2 inhibition (Change from baseline), skin ([3]; Schedule A (60 mg), n = 3, cycle 1, day 8): 90.9%
- Skin pMCM2 Mean H-score (StDev), Cycle 1, day 8 ([3]; Schedule B (60 mg), n = 3, baseline mean H-score 4.40 (2.96)): 0.67 (0.46)
- Skin pMCM2 Mean H-score (StDev), Cycle 1, day 8 ([3]; Schedule B (80 mg), n = 9, baseline mean H-score 12.72 (2.02)): 3.54 (6.19)
- % of pMCM2 inhibition (Change from baseline), skin ([3]; Schedule B (80 mg), n = 9, cycle 1, day 8): 72.2%
- % of pMCM2 inhibition (Change from baseline), skin ([3]; Schedule D (20 mg), baseline n = 6, cycle 1, day 8 n = 4): 77.1%
- Skin pMCM2 Mean H-score (StDev), Cycle 1, day 8 ([3]; Schedule D (20 mg), baseline n = 6, cycle 1, day 8 n = 4, baseline mean H-score 22.05 (24.52)): 5.05 (2.90)
- Skin pMCM2 Mean H-score (StDev), Cycle 1, day 8 ([3]; Schedule D (30 mg), n = 6, baseline mean H-score 33.32 (23.43)): 6.43 (5.17)
- % of pMCM2 inhibition (Change from baseline), skin ([3]; Schedule D (30 mg), n = 6, cycle 1, day 8): 80.7%
